Laboratory results: the NIST ThermoML archive (doi:10.1021/je049572f)

Experiment: xn = mol fraction of the nth substance listed
Details: 101.33 kPa, Liquid

C=Cc1ccccc1 [styrene] + CCCCCCCC
Details	mass density [kg/m3]	viscosity [mPa·s]
293.15 K, x1 = 0.1085	719.52	0.537
293.15 K, x1 = 0.2151	736.18	0.537
293.15 K, x1 = 0.3202	753.7	0.541
293.15 K, x1 = 0.4223	772.01	0.551
293.15 K, x1 = 0.523	791.51	0.565
293.15 K, x1 = 0.622	812.07	0.593
293.15 K, x1 = 0.7189	833.64	0.619
293.15 K, x1 = 0.8145	856.59	0.649
293.15 K, x1 = 0.9081	880.84	0.694
293.15 K, x1 = 1	906.29	0.749
298.15 K, x1 = 0.1085	715.45	0.502
298.15 K, x1 = 0.2151	732.06	0.508
298.15 K, x1 = 0.3202	749.53	0.51
298.15 K, x1 = 0.4223	767.81	0.518
298.15 K, x1 = 0.523	787.27	0.533
298.15 K, x1 = 0.622	807.78	0.56
298.15 K, x1 = 0.7189	829.3	0.576
298.15 K, x1 = 0.8145	852.22	0.608
298.15 K, x1 = 0.9081	876.43	0.647
298.15 K, x1 = 1	901.86	0.699
303.15 K, x1 = 0.1085	711.38	0.475
303.15 K, x1 = 0.2151	727.94	0.477
303.15 K, x1 = 0.3202	745.38	0.48
303.15 K, x1 = 0.4223	763.63	0.489
303.15 K, x1 = 0.523	783.03	0.503
303.15 K, x1 = 0.622	803.5	0.527
303.15 K, x1 = 0.7189	824.98	0.544
303.15 K, x1 = 0.8145	847.87	0.571
303.15 K, x1 = 0.9081	872.03	0.609
303.15 K, x1 = 1	897.45	0.654
313.15 K, x1 = 0.1085	703.13	0.423
313.15 K, x1 = 0.2151	719.6	0.427
313.15 K, x1 = 0.3202	737	0.431
313.15 K, x1 = 0.4223	755.16	0.439
313.15 K, x1 = 0.523	774.46	0.451
313.15 K, x1 = 0.622	794.86	0.48
313.15 K, x1 = 0.7189	816.28	0.486
313.15 K, x1 = 0.8145	839.09	0.511
313.15 K, x1 = 0.9081	863.15	0.541
313.15 K, x1 = 1	888.53	0.577
323.15 K, x1 = 0.1085	694.84	0.381
323.15 K, x1 = 0.2151	711.23	0.385
323.15 K, x1 = 0.3202	728.58	0.388
323.15 K, x1 = 0.4223	746.66	0.396
323.15 K, x1 = 0.523	765.88	0.406
323.15 K, x1 = 0.622	786.22	0.427
323.15 K, x1 = 0.7189	807.56	0.437
323.15 K, x1 = 0.8145	830.31	0.46
323.15 K, x1 = 0.9081	854.31	0.484
323.15 K, x1 = 1	879.62	0.513
333.15 K, x1 = 0.1085	686.43	0.351
333.15 K, x1 = 0.2151	702.74	0.351
333.15 K, x1 = 0.3202	720.06	0.352
333.15 K, x1 = 0.4223	738.07	0.359
333.15 K, x1 = 0.523	757.21	0.368
333.15 K, x1 = 0.622	777.49	0.387
333.15 K, x1 = 0.7189	798.77	0.395
333.15 K, x1 = 0.8145	821.46	0.413
333.15 K, x1 = 0.9081	845.37	0.438
333.15 K, x1 = 1	870.64	0.462
343.15 K, x1 = 0.1085	677.99	0.321
343.15 K, x1 = 0.2151	694.24	0.325
343.15 K, x1 = 0.3202	711.51	0.322
343.15 K, x1 = 0.4223	729.46	0.328
343.15 K, x1 = 0.523	748.55	0.337
343.15 K, x1 = 0.622	768.75	0.355
343.15 K, x1 = 0.7189	789.97	0.362
343.15 K, x1 = 0.8145	812.63	0.376
343.15 K, x1 = 0.9081	836.5	0.398
343.15 K, x1 = 1	861.72	0.419
353.15 K, x1 = 0.1085	669.39	0.293
353.15 K, x1 = 0.2151	685.6	0.295
353.15 K, x1 = 0.3202	702.81	0.295
353.15 K, x1 = 0.4223	720.71	0.301
353.15 K, x1 = 0.523	739.76	0.308
353.15 K, x1 = 0.622	759.93	0.322
353.15 K, x1 = 0.7189	781.11	0.333
353.15 K, x1 = 0.8145	803.68	0.349
353.15 K, x1 = 0.9081	827.51	0.362
353.15 K, x1 = 1	852.68	0.381
363.15 K, x1 = 0.1085	660.98	0.27
363.15 K, x1 = 0.2151	677.15	0.268
363.15 K, x1 = 0.3202	694.32	0.273
363.15 K, x1 = 0.4223	712.19	0.277
363.15 K, x1 = 0.523	731.2	0.285
363.15 K, x1 = 0.622	751.34	0.294
363.15 K, x1 = 0.7189	772.48	0.304
363.15 K, x1 = 0.8145	795.04	0.318
363.15 K, x1 = 0.9081	818.82	0.333
363.15 K, x1 = 1	843.99	0.349

O=S1(=O)CCCC1 [sulfolane] + CCc1ccccc1
Details	mass density [kg/m3]	viscosity [mPa·s]
303.15 K, x2 = 0	1260.8	10.07
303.15 K, x2 = 0.1118	1209.27	6.224
303.15 K, x2 = 0.2205	1160.4	4.155
303.15 K, x2 = 0.3267	1114.66	2.942
303.15 K, x2 = 0.4301	1071.65	2.185
303.15 K, x2 = 0.5309	1031.19	–
303.15 K, x2 = 0.6293	993.33	1.324
303.15 K, x2 = 0.7254	957.17	1.057
303.15 K, x2 = 0.8194	923.09	0.861
303.15 K, x2 = 0.9106	890.45	0.716
313.15 K, x2 = 0	1251.9	7.808
313.15 K, x2 = 0.1118	1200.44	4.943
313.15 K, x2 = 0.2205	1151.53	3.385
313.15 K, x2 = 0.3267	1105.77	2.452
313.15 K, x2 = 0.4301	1062.77	1.835
313.15 K, x2 = 0.5309	1022.32	–
313.15 K, x2 = 0.6293	984.45	1.135
313.15 K, x2 = 0.7254	948.31	0.924
313.15 K, x2 = 0.8194	914.23	0.757
313.15 K, x2 = 0.9106	881.6	0.632
323.15 K, x2 = 0	1243.36	6.194
323.15 K, x2 = 0.1118	1191.64	4.007
323.15 K, x2 = 0.2205	1142.7	2.801
323.15 K, x2 = 0.3267	1096.92	2.048
323.15 K, x2 = 0.4301	1053.9	1.561
323.15 K, x2 = 0.5309	1013.47	1.136
323.15 K, x2 = 0.6293	975.58	0.993
323.15 K, x2 = 0.7254	939.43	0.813
323.15 K, x2 = 0.8194	905.36	0.66
323.15 K, x2 = 0.9106	872.72	0.564
333.15 K, x2 = 0	1234.62	5.009
333.15 K, x2 = 0.1118	1182.85	3.33
333.15 K, x2 = 0.2205	1133.86	2.35
333.15 K, x2 = 0.3267	1088.06	1.763
333.15 K, x2 = 0.4301	1045.02	1.347
333.15 K, x2 = 0.5309	1004.57	–
333.15 K, x2 = 0.6293	966.66	0.876
333.15 K, x2 = 0.7254	930.5	0.724
333.15 K, x2 = 0.8194	896.41	0.597
333.15 K, x2 = 0.9106	863.76	0.505
343.15 K, x2 = 0	1225.92	4.126
343.15 K, x2 = 0.1118	1173.93	2.796
343.15 K, x2 = 0.2205	1124.89	2.005
343.15 K, x2 = 0.3267	1079.06	1.541
343.15 K, x2 = 0.4301	1036.02	1.177
343.15 K, x2 = 0.5309	995.54	0.882
343.15 K, x2 = 0.6293	957.62	0.772
343.15 K, x2 = 0.7254	921.43	0.646
343.15 K, x2 = 0.8194	887.32	0.536
343.15 K, x2 = 0.9106	854.67	0.459
353.15 K, x2 = 0	1216.8	3.44
353.15 K, x2 = 0.1118	1165.14	2.371
353.15 K, x2 = 0.2205	1116.08	1.736
353.15 K, x2 = 0.3267	1070.18	1.319
353.15 K, x2 = 0.4301	1027.1	1.039
353.15 K, x2 = 0.5309	986.58	0.785
353.15 K, x2 = 0.6293	948.63	0.692
353.15 K, x2 = 0.7254	912.4	0.583
353.15 K, x2 = 0.8194	878.28	0.484
353.15 K, x2 = 0.9106	845.58	0.417
